Results published in ChEMBL document CHEMBL2417552, “Screen of pseudopeptidic inhibitors of human sirtuins 1-3: two lead compounds with antiproliferative effects in cancer cells” (J Med Chem, 2013).

Key:
[1] = system: A549; experiment: Cell cycle arrest in human A549 cells assessed as accumulation at G1 phase at 100 uM after 18 hrs by propidium iodide staining-based FACS flow cytometric analysis (reference value: 62.3%); assay type: functional
[2] = target: T1, NAD-dependent protein deacetylase sirtuin-3, mitochondrial (Homo sapiens) (UniProt Q9NTG7); conditions: at 50 µM
T1 sequence (whole entry): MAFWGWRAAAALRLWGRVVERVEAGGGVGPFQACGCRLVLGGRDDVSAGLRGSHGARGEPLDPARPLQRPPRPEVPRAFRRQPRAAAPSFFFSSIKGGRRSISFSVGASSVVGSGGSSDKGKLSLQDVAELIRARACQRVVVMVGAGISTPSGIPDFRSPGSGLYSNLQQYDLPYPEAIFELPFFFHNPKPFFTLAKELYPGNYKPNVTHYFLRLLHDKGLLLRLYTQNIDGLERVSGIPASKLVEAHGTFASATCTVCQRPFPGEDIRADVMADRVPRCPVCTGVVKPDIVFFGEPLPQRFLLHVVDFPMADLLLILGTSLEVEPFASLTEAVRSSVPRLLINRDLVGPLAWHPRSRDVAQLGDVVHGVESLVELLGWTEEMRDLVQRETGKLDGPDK
Description: Inhibition of human recombinant His-tagged SIRT3 using KI179 as substrate at 50 uM preincubated for 5 mins followed by enzyme addition measured after 1 hr by fluorescence assay relative to control

[3] = system: A549; experiment: Cell cycle arrest in human A549 cells assessed as accumulation at G2 phase at 100 uM after 18 hrs by propidium iodide staining-based FACS flow cytometric analysis (reference value: 19.4%); assay type: functional
[4] = target: T2, NAD-dependent protein deacetylase sirtuin-3, mitochondrial (Homo sapiens, UniProt Q9NTG7); experiment: Inhibition of human recombinant His-tagged SIRT3 using KI179 as substrate preincubated for 5 mins followed by enzyme addition measured after 1 hr by fluorescence assay
T2 sequence (Q9NTG7 whole entry): T1 sequence (whole entry)

[5] = system: MCF7; experiment: Cell cycle arrest in human MCF7 cells assessed as accumulation at S phase at 100 uM after 18 hrs by propidium iodide staining-based FACS flow cytometric analysis (reference value: 12.6%); assay type: functional

inhibition [2]: 82%
IC50 [4]: 8.35 µM
Compound: COc1ccc(C(=O)CNC(=O)[C@H](CCCCNC(C)=S)NC(=O)OCc2ccccc2)cc1
Activity [1]: 82.2%
Activity [3]: 9.4%
Activity [5]: 5.8%
